Results on one molecule are retold here after US8101760B2, “Glucocorticoid receptor modulator and methods of use” (Eli Lilly and Company, priority 2007, dated 2012).

Data set [1] in a line: In vivo studies of genotoxic potential.
The subject of another data set is serum osteocalcin. The data set can be described thus: Serum osteocalcin assay. The class given is in vivo, mouse. Particulars: mice, oral, seven days; 1 mg/kg/day Compound (I) vs 10 mg/kg/day prednisolone; mean of 6. From the text: Bone loss/osteoporosis and the resulting increased risk of fracture is a common and significant adverse effect that results from glucocorticoid therapy. Glucocorticoid induced osteoporosis is believed to result, at least in part, from an inhibition of bone formation. The measurement of serum osteocalcin, a biological marker of bone synthesis, is a recognized tool for assessing the adverse effects of glucocorticoid therapy on bone. (see Pearce et al., J. Clin. Endocrino. Metab. 83: 801-806, (1998)).
To assess the effects of Compound (I) on bone formation, Compound (I) is formulated in a vehicle comprising 5% carboxymethyl cellulose and 0.25% Tween 80 and administered orally via gavage to sixteen week old male Swiss-Web mice (Harlan Industries, Indianapolis, Ind.) for seven days. For comparison, prednisolone is administered orally in the same vehicle. Serum is collected 24 hours after the last dose and osteocalcin levels are determined using a competitive radioimmunoassay (RIA) kit (Biomedical Technologies, Inc., Stoughton, Mass.) modified to a 96 well format. […] The filters are punched and the radioactivity quantitated on a gamma counter (Cobra II, Packard Instruments, Meriden, Conn.). Radioactivity detected on the filters from test samples is inversely proportional to serum osteocalcin concentration. […]

With `CC/C(=C1\c2ccc(Cl)cc2OCc2ncccc21)c1cccc(NS(C)(=O)=O)c1` [Compound (I), (E)-N-{3-[1-(8-Chloro-11H-10-oxa-1-aza-dibenzo[a,d]cyclohepten-5-ylidene)-propyl]-phenyl}-methanesulfonamide], the genotoxic potential entry in data set [1] was “non-genotoxic”. Moreover, the “reduction in serum osteocalcin levels compared with prednisolone” value in the data set with serum osteocalcin is listed as “less reduction”.
